In US20060257489A1, “Fine particles, method and device for preparation thereof, and agent for parenteral injection and method for production thereof” (priority 2003, published 2006):

Tests used:
Assay type in all cases: physicochemical
[1] = absorbance characteristic before and after laser beam irradiation (photochemical reaction / degeneration)
Procedure: (§1) The absorbance characteristic of the solution was measured by using a general-purpose spectrophotometer (HITACHI U-3500). […] The optical path length was set to 10 mm for the measurement.

[2] = observation of apparent dissolution in water after laser fine pulverization
Procedure: Subsequently, carbamazepine was suspended in water so that the concentration thereof was equal to 2 mg/ml, thereby preparing suspended liquid, and triple higher harmonics of YAG laser ([…], FWHM=4 ns, 20 Hz, irradiation time: 15 minutes) was irradiated to the suspended liquid.

[3] = particle diameter estimated from the absorbance characteristic after fine pulverization; conditions: for particle diameter after fine pulverization treatment: 355 nm, 310 mJ/cm^2Pulse
From the text: The measured value (R) of the absorbance measured by the general-purpose spectrophotometer contains the light absorption (A1) of finely-pulverized carbamazepine itself, the light scattering (S) and the light absorption (A2) of the added surfactant. A1 represents the fine pulverization state of carbamazepine, and it is estimated that the average particle diameter of carbamazepine is smaller as the light absorption is larger. Therefore, in order to estimate the particle diameter of carbamazepine after the treatment, with respect to the absorbance on the ordinate axis in FIG. 8, the increment (S) of the absorbance by the light scattering at each wavelength is approximated to the measured value (S1) of 500 nm at which carbamazepine has no absorption, and the measured value R of the absorbance is corrected to the absorbance A1 by using the operation of A1≈R−A2-S1.
The absorbance characteristic after the laser beam irradiation was measured in the same manner as example 3. In FIG. 9, the solid line represents the absorbance characteristic of the treatment target liquid using the surfactant liquid having the concentration of 1/1000, the one-dot-dashed line represents the absorbance characteristic of the treatment target liquid using the surfactant liquid having the concentration of 1/100, and the two-dot-dashed line represents the absorbance characteristic of the treatment target liquid using the surfactant liquid having the concentration of 1/10. The dashed line represents the absorbance characteristic of the treatment target liquid using no surfactant.

[4] = purity after fine pulverization treatment by HPLC, laser beam wavelength dependence; conditions: one hour
Procedure: In this example, fine pulverization of clobetasone butyrate as adrenal cortex hormone of hardly-soluble medicament was attempted. […] A stirring magnet stick for stirring the liquid was put in the square cell so that a laser beam was uniformly irradiated to the suspended liquid. The temperature of the suspended liquid was set to room temperature of 25° C. at all times except for a temperature dependence test.
In this example, a continuously wavelength-variable OPO parametric oscillator was used as a light source for fine pulverization because the wavelength dependence of the fine pulverization and photochemical reaction by laser beam irradiation was required to be investigated. The pulse width of the irradiation laser beam was set to FWHM 4 ns, and the repetition frequency was set to 10 Hz.
Subsequently, the irradiation wavelength of the laser beam was varied and the test was carried out.

[5] = variation of the absorbance characteristic of the finely-pulverized solution with time lapse after laser beam irradiation (dispersion stability); conditions: finely-pulverized solution in water (355 nm, 380 mJ/cm^2Pulse, 15 minutes), after six days
Procedure: as §1
The absorbance characteristic indicated by the dashed line is the one before laser beam irradiation.

Row | photochemical reaction on laser beam irradiation ([1]; 1 mg/ml suspended in water, 355 nm, 310 mJ/cm^2Pulse, 15 minutes, with and without surfactant Tween20) | photochemical reaction on laser beam irradiation ([1]; 2 mg/ml suspended in water, 355 nm, 430 mJ/cm^2Pulse, 15 minutes) | dissolution when suspended in pure water ([2]; precipitate after laser treatment (355 nm, 430 mJ/cm^2Pulse, 15 minutes)) | dissolution when suspended in pure water ([2]; sample before the treatment) | particle diameter after fine pulverization treatment ([3]; 15 minutes, 1 mg/ml in water) | SMILES | purity after fine pulverization treatment (HPLC) ([4]; laser beam wavelength 500 nm or less) | purity after fine pulverization treatment (HPLC) ([4]; laser beam wavelength 500 to 800 nm) | degeneration after the treatment ([1]; 355 nm treatment, UV absorption curves just after the treatment and after six days) | photochemical reaction on laser beam irradiation ([1]; Kr-F laser 248 nm, otherwise as example 1) | appearance of the solution after the laser beam irradiation ([2]; water, 355 nm, 380 mJ/cm^2Pulse) | precipitation caused by the aggregation of fine particles [5] | degree of fine pulverization of the suspended liquid ([3]; 0.5 mg/ml in water, YAG pulse laser 1064 nm, 1700 mJ/cm^2 per pulse, one hour) | particle diameter after fine pulverization treatment ([3]; with added surfactant Tween20)
1 | no photochemical reaction is induced | little photochemical reaction occurred | instantaneously dissolved | hardly dissolved | sub-micron or less | NC(=O)N1c2ccccc2C=Cc2ccccc21 [carbamazepine] | – | – | – | – | – | – | – | –
2 | – | – | – | – | – | CCCC(=O)O[C@]1(C(=O)CCl)[C@H](C)C[C@@H]2[C@@H]3CCC4=CC(=O)C=C[C@]4(C)[C@]3(F)C(=O)C[C@@]21C [clobetasone butyrate] | degradation is also small | great degradation of the purity | no degeneration occurred | some photochemical reaction occurs | transparent | rarely observed | sub-micrometer order | sub-micron or less
